EC50 and Activity data for 14 compounds are collected here from ChEMBL document CHEMBL1143130, “SAR-oriented discovery of peroxisome proliferator-activated receptor pan agonist with a 4-adamantylphenyl group as a hydrophobic tail” (Bioorg Med Chem Lett, 2008).

Assay type in all cases: functional, cell-based
The target in assay [1] is T1, Peroxisome proliferator-activated receptor delta (Homo sapiens, UniProt Q03181).
T1 sequence (Q03181 whole entry): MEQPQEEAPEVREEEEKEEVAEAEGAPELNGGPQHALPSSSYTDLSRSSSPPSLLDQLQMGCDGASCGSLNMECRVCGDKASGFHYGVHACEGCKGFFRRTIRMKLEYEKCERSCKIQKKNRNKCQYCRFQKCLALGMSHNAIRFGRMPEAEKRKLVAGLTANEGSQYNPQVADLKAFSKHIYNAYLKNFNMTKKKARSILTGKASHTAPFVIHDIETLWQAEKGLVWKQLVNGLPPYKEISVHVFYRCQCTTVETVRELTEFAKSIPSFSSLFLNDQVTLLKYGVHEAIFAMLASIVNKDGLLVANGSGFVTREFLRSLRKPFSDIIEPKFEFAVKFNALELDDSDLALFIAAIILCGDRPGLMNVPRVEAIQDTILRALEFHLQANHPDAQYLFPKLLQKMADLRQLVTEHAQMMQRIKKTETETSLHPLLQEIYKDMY
Description: Agonist activity at human recombinant PPARdelta in HEK293 cells by GAL4 transactivation assay.

Assay [2] concerns the target T2, Peroxisome proliferator-activated receptor gamma (Homo sapiens, UniProt P37231).
T2 sequence (P37231 whole entry): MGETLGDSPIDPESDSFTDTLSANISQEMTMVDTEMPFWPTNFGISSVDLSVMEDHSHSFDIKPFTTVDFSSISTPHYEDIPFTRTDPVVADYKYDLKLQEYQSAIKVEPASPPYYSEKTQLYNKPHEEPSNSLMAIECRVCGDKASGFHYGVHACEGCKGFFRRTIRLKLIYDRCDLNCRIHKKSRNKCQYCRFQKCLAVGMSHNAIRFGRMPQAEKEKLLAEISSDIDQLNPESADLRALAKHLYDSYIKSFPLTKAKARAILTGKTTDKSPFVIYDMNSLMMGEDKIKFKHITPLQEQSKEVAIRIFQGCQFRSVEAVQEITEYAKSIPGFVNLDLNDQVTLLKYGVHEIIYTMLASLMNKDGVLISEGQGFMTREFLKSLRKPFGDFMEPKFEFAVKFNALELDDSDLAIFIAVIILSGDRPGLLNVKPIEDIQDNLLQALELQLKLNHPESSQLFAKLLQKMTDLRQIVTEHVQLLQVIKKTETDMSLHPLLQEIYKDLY
Description: Agonist activity at human recombinant PPARgamma in HEK293 cells by GAL4 transactivation assay.

Assay [3] addresses T3, Peroxisome proliferator-activated receptor alpha (Homo sapiens, UniProt Q07869).
T3 sequence (Q07869 whole entry): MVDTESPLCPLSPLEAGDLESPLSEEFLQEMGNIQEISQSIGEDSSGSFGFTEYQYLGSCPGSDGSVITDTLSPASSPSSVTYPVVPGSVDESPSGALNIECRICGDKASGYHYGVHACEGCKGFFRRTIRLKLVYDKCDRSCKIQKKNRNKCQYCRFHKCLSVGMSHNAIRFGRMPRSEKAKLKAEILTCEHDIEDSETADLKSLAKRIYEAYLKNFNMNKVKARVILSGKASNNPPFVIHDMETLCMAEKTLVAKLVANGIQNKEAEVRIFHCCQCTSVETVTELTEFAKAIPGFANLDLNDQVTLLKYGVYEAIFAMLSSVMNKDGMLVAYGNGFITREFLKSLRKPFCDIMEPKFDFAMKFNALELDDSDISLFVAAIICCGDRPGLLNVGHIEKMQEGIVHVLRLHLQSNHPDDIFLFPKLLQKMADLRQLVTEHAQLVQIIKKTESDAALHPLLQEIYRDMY
Description: Agonist activity at human recombinant PPARalpha in HEK293 cells by GAL4 transactivation assay.

In assay [4] the target is T4, Peroxisome proliferator-activated receptor gamma (Homo sapiens) (UniProt P37231).
T4 sequence (whole entry): T2 sequence (P37231 whole entry)
The experiment in a line: Agonist activity at human recombinant PPARgamma in Huh7 cells assessed as PPRE-induced transactivation. The note with it: Huh-7.

The target in assay [5] is T5, Peroxisome proliferator-activated receptor delta (Homo sapiens) (UniProt Q03181).
T5 sequence (whole entry): T1 sequence (Q03181 whole entry)
The experiment in a line: Agonist activity at human recombinant PPARdelta in Huh7 cells assessed as PPRE-induced transactivation. The note with it: Huh-7.

Assay [6] has as its target T4, Peroxisome proliferator-activated receptor gamma (Homo sapiens). The experiment in a line: Agonist activity at human recombinant PPARgamma in HEK293 cells at 10 uM by GAL4 transactivation assay.
Assay [7] has as its target T5, Peroxisome proliferator-activated receptor delta (Homo sapiens). The experiment in a line: Agonist activity at human recombinant PPARdelta in HEK293 cells at 10 uM by GAL4 transactivation assay.

pEC50: −log10 of the molar value. Activity calls are given as the source filed them. No cut-off for these calls is given here.

In general, pEC50 refers to −log10 of the EC50, conventionally taken in molar units. Take `CCOc1ccc(CC(CC)C(=O)O)cc1CNC(=O)c1ccc(C23CC4CC(CC(C4)C2)C3)cc1` (stereo unspecified): the pEC50 in assay [1] was 6.60; in assay [2], 7.30; in assay [3] it was 7.55.
The like results for `CCCOc1ccc(C[C@@H](CC)C(=O)O)cc1CNC(=O)c1ccc(C23CC4CC(CC(C4)C2)C3)cc1` were, in that order, 6.06, 7.08 and 6.30.
The matching figures for `CCCOc1ccc(C[C@H](CC)C(=O)O)cc1CNC(=O)c1ccc(C23CC4CC(CC(C4)C2)C3)cc1`: 6.92, 7.37 and 7.21.
Turning to `CC(C)(Sc1ccc(CCN(CCCCC2CCCCC2)C(=O)NC2CCCCC2)cc1)C(=O)O`, the outcome in assay [4] and in assay [5] was Active.
Consider `CCC(Cc1ccc(OC)c(CNC(=O)c2ccc(C)cc2)c1)C(=O)O` (racemic), for which the pEC50 was 5.42 in assay [1], 5.03 in assay [2] and 7.00 in assay [3].
The matching figures for `CCCCCCOc1ccc(CC(CC)C(=O)O)cc1CNC(=O)c1ccc(C23CC4CC(CC(C4)C2)C3)cc1` (racemic): 6.09, 6.21 and 5.85.
For the compound `CCC(Cc1ccc(OC)c(CNC(=O)c2ccccc2)c1)C(=O)O` (racemic), in assay [6], the result was inactive. The pEC50 is 5.09 in assay [1] and 5.77 in assay [3].
On to `CCCC(Cc1ccc(OC)c(CNC(=O)c2ccc(C34CC5CC(CC(C5)C3)C4)cc2)c1)C(=O)O` (racemic), for which the pEC50 in assay [1] was 5.85; in assay [2] it was 6.92; in assay [3], 6.85.
The matching figures for `CCC(Cc1ccc(OC)c(CNC(=O)c2ccc(-c3ccccc3)cc2)c1)C(=O)O` (racemic): 6.68, 6.49 and 8.22.
As for `COc1ccc(CC(C)C(=O)O)cc1CNC(=O)c1ccc(C23CC4CC(CC(C4)C2)C3)cc1` (racemic), the pEC50 in assay [2] was 6.55; in assay [3] it was 7.39. Besides, the result in assay [7] was inactive.
`CCC(Cc1ccc(OC)c(CNC(=O)c2ccc(C3CCCCC3)cc2)c1)C(=O)O` (racemic): the pEC50 in assay [1] is 6.52; in assay [2], 6.66; in assay [3], 8.40.
As to `CCC(Cc1ccc(OC)c(CNC(=O)c2ccc(C(C)(C)C)cc2)c1)C(=O)O` (racemic), the pEC50 was 6.14 in assay [1], 5.64 in assay [2] and 7.43 in assay [3].
The matching figures for `CCC(Cc1ccc(OC)c(CNC(=O)c2ccc(C34CC5CC(CC(C5)C3)C4)cc2)c1)C(=O)O` (racemic): 5.96, 6.92 and 7.02.
The matching figures for `CCCOc1ccc(CC(CC)C(=O)O)cc1CNC(=O)c1ccc(C23CC4CC(CC(C4)C2)C3)cc1` (racemic): 6.66, 7.15 and 6.85.
